Assay results as given in ChEMBL document CHEMBL5131402, “Design, synthesis, and biological evaluation of phenyl thiazole-based AR-V7 degraders” (Bioorg Med Chem Lett, 2022).
In brackets after ≈: the same amount, converted by molar mass.

Assays:
CWR22R [1] = test: Antiproliferative activity against human 22Rv1 cells expressing […]; format: functional, cell-based
[2] = Terminal half life in CD1 mouse at 30 mg/kg, po administered as single dose; format: ADME, organism-based; details: in vivo, read-out: beta t1/2 (converted)
[3] = AUC (0 to infinity) in CD1 mouse at 100 mg/kg, po administered as single dose; format: ADME, organism-based; set-up: time infinity, dose 100 mg/kg, route po; details: in vivo
[4] = AUC (0 to infinity) in CD1 mouse at 30 mg/kg, po administered as single dose; format: ADME, organism-based; set-up: time infinity, dose 30 mg/kg, route po; details: in vivo
[5] = Terminal half life in CD1 mouse at 100 mg/kg, po administered as single dose; format: ADME, organism-based; details: in vivo, read-out: beta t1/2 (converted)
[6] = Metabolic stability in mouse liver microsomes assessed as parent compound remaining measured at 1 hr; format: ADME, Microsome; details: read-out: Stability
[7] = Tmax in CD1 mouse at 100 mg/kg, po administered as single dose; format: ADME, organism-based; details: in vivo
[8] = AUC (0 to infinity) in CD1 mouse at 1 mg/kg, iv administered as single dose; format: ADME, organism-based; set-up: time infinity, dose 1 mg/kg, route iv; details: in vivo
[9] = Tmax in CD1 mouse at 30 mg/kg, po administered as single dose; format: ADME, organism-based; details: in vivo
[10] = molecular target: von Hippel-Lindau disease tumor suppressor/Androgen receptor (Homo sapiens, UniProt P10275+P40337); test: PROTAC activity at VHL/AR-V7 (unknown origin) expressed in human 22Rv1 cells assessed as induction of AR-V7 degradation; format: cell-based
CWR22R [11] = test: Antiproliferative activity against human 22Rv1 cells expressing […] assessed as maximum efficacy relative to control; format: functional
[12] = Cmax in CD1 mouse at 30 mg/kg, po administered as single dose; format: ADME, organism-based; set-up: dose 30 mg/kg, route po; details: in vivo
[13] = test system: von Hippel-Lindau disease tumor suppressor/Androgen receptor (Homo sapiens), P10275+P40337 [UNDEFINED MUTATION]; test: PROTAC activity at VHL/AR-V7 (unknown origin) expressed in human 22Rv1 cells assessed as induction of AR-V7 degradation my measuring maximum efficacy relative to control; format: cell-based
[14] = Oral bioavailability in CD1 mouse at 30 mg/kg administered as single dose; format: ADME, organism-based; details: in vivo
[15] = Cmax in CD1 mouse at 100 mg/kg, po administered as single dose; format: ADME, organism-based; set-up: dose 100 mg/kg, route po; details: in vivo
[16] = Aqueous solubility of the compound at pH.7.4; format: physicochemical
[17] = Oral bioavailability in CD1 mouse at 100 mg/kg administered as single dose; format: ADME, organism-based; details: in vivo
[18] = Terminal half life in CD1 mouse at 1 mg/kg, iv administered as single dose; format: ADME, organism-based; details: in vivo, read-out: beta t1/2 (converted)
[19] = Cmax in CD1 mouse at 1 mg/kg, iv administered as single dose; format: ADME, organism-based; set-up: dose 1 mg/kg, route iv; details: in vivo
CWR22R [20] = test: Antiproliferative activity against human 22Rv1 cells expressing […] assessed as inhibition of cell growth at 10 uM relative to control; format: functional

von Hippel-Lindau disease tumor suppressor/Androgen receptor, sequence (P10275 whole entry, looked up, stated change not applied): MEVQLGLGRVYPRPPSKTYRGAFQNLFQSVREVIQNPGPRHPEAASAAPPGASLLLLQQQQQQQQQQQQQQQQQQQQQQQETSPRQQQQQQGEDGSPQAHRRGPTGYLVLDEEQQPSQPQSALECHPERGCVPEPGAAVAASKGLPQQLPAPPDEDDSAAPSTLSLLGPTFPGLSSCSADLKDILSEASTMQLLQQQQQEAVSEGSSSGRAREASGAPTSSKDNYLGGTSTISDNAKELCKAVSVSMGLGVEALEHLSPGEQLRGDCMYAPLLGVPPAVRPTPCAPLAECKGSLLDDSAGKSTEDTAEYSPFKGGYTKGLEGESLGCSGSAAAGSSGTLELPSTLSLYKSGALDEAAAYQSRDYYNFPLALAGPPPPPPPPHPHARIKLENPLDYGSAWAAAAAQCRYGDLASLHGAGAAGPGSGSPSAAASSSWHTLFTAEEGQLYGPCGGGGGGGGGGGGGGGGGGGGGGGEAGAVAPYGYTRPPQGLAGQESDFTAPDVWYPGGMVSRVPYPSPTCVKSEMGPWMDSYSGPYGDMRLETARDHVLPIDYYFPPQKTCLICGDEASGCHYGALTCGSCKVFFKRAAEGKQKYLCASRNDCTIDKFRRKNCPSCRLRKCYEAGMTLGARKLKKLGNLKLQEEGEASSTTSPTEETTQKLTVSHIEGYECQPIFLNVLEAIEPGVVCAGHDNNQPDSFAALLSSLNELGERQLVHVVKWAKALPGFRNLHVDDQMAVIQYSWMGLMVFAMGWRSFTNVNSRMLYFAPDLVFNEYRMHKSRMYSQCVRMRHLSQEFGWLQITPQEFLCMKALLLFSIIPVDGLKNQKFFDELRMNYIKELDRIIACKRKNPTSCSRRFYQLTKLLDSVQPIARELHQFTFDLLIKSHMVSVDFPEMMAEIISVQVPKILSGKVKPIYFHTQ
von Hippel-Lindau disease tumor suppressor/Androgen receptor, sequence (P40337 whole entry, looked up, stated change not applied): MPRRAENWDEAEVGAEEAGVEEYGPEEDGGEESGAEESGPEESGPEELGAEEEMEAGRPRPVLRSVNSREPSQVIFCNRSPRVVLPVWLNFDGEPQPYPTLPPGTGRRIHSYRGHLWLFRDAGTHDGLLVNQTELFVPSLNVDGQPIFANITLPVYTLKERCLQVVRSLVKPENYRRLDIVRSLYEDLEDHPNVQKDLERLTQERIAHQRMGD
von Hippel-Lindau disease tumor suppressor/Androgen receptor (Homo sapiens), P10275+P40337 [UNDEFINED MUTATION], sequence (P10275 whole entry, looked up, change not shown): as the sequence (P10275 whole entry, looked up, stated change not applied) above
von Hippel-Lindau disease tumor suppressor/Androgen receptor (Homo sapiens), P10275+P40337 [UNDEFINED MUTATION], sequence (P40337 whole entry, looked up, change not shown): as the sequence (P40337 whole entry, looked up, stated change not applied) above

Row | SMILES | EC50 (CWR22R [1]) [µM] | DC50 [10] [µM] | other results
1 | Cc1ncsc1-c1ccc([C@H](C)NC(=O)[C@@H]2C[C@@H](O)CN2C(=O)[C@@H](NC(=O)CCCCOc2ccc(-c3csc(N4CC5(COC5)C4)n3)cc2)C(C)(C)C)cc1 | > 10 | – | –
2 | Cc1ncsc1-c1ccc(CNC(=O)[C@@H]2C[C@@H](O)CN2C(=O)[C@@H](NC(=O)C2(F)CC2)C(C)(C)C)c(OCCCCCCOc2ccc(-c3csc(N4CCOCC4)n3)cc2)c1 | > 10 | – | –
3 | Cc1ncsc1-c1ccc([C@H](C)NC(=O)[C@@H]2C[C@@H](O)CN2C(=O)[C@@H](NC(=O)CCCCOc2ccc(-c3csc(N4CCOCC4)n3)cc2)C(C)(C)C)cc1 | 0.88 | 0.32 | half-life [2]: 60 min; AUC(0-inf) [3]: 5950 ng·h/mL; AUC(0-inf) [4]: 1980 ng·h/mL; half-life [5]: 42 min; remaining at 1 h [6]: 6%; Tmax [7]: 79.8 min; AUC(0-inf) [8]: 1290 ng·h/mL; Tmax [9]: 45 min; Emax (CWR22R [11]): 94%; Cmax [12]: 773 ng/mL; Emax [13]: 67%; bioavailability [14]: 5%; Cmax [15]: 1810 ng/mL; solubility [16]: 3.5 µM (≈ 2.76 µg/mL); bioavailability [17]: 4.6%; half-life [18]: 54 min; Cmax [19]: 2900 ng/mL
4 | Cc1ncsc1-c1ccc([C@H](C)NC(=O)[C@@H]2C[C@@H](O)CN2C(=O)[C@@H](NC(=O)CCCCOc2ccc(-c3csc(N4CCOC(C)C4)n3)cc2)C(C)(C)C)cc1 (stereo partly specified) | > 10 | – | –
5 | Cc1ncsc1-c1ccc([C@H](C)NC(=O)[C@@H]2C[C@@H](O)CN2C(=O)[C@@H](NC(=O)CCCCCOc2ccc(-c3csc(N4CCOCC4)n3)cc2)C(C)(C)C)cc1 | – | 1 | Emax [13]: 60%
6 | Cc1ncsc1-c1ccc([C@H](C)NC(=O)[C@@H]2C[C@@H](O)CN2C(=O)[C@@H](NC(=O)c2ccc(-c3csc(N4CCOCC4)n3)cc2)C(C)(C)C)cc1 | – | > 10 | –
7 | Cc1ncsc1-c1ccc([C@H](C)NC(=O)[C@@H]2C[C@@H](O)CN2C(=O)[C@@H](NC(=O)CCCCOc2ccc(-c3csc(N4CCC5(COC5)C4)n3)cc2)C(C)(C)C)cc1 | > 10 | – | –
8 | Cc1ncsc1-c1ccc([C@H](C)NC(=O)[C@@H]2C[C@@H](O)CN2C(=O)[C@@H](NC(=O)CCCCOc2ccc(-c3csc(N4CCOCC4)n3)cc2[N+](=O)[O-])C(C)(C)C)cc1 | > 10 | – | –
9 | Cc1ncsc1-c1ccc([C@H](C)NC(=O)[C@@H]2C[C@@H](O)CN2C(=O)[C@@H](NC(=O)CCOc2ccc(-c3csc(N4CCOCC4)n3)cc2)C(C)(C)C)cc1 | – | > 10 | –
10 | Cc1ncsc1-c1ccc([C@H](C)NC(=O)[C@@H]2C[C@@H](O)CN2C(=O)[C@@H](NC(=O)CCCCOc2ccc(-c3csc(N4CCOC(C)(C)C4)n3)cc2)C(C)(C)C)cc1 | – | > 10 | inhibition at 10 µM (CWR22R [20]): 66%
11 | Cc1ncsc1-c1ccc([C@H](C)NC(=O)[C@@H]2C[C@@H](O)CN2C(=O)[C@@H](NC(=O)CCCOc2ccc(-c3csc(N4CCOCC4)n3)cc2)C(C)(C)C)cc1 | 1.36 | 0.35 | remaining at 1 h [6]: 5%; Emax (CWR22R [11]): 90%; Emax [13]: 53%; solubility [16]: < 2 µM
12 | Cc1ncsc1-c1ccc([C@H](C)NC(=O)[C@@H]2C[C@@H](O)CN2C(=O)[C@@H](NC(=O)CCCCOc2ccc(-c3csc(N4CC5(CCOCC5)C4)n3)cc2)C(C)(C)C)cc1 | > 10 | – | –
13 | Cc1ncsc1-c1ccc(CNC(=O)[C@@H]2C[C@@H](O)CN2C(=O)[C@@H](NC(=O)C2(F)CC2)C(C)(C)C)c(OCCCCCCCCOc2ccc(-c3csc(N4CCOCC4)n3)cc2)c1 | > 10 | – | –
14 | COc1c(-c2csc(N3CCOCC3)n2)ccc(OCCCCC(=O)N[C@H](C(=O)N2C[C@H](O)C[C@H]2C(=O)N[C@@H](C)c2ccc(-c3scnc3C)cc2)C(C)(C)C)c1F | > 10 | > 10 | –
15 | Cc1ncsc1-c1ccc([C@H](C)NC(=O)[C@@H]2C[C@@H](O)CN2C(=O)[C@@H](NC(=O)COc2ccc(-c3csc(N4CCOCC4)n3)cc2)C(C)(C)C)cc1 | – | > 10 | –
16 | Cc1ncsc1-c1ccc(CNC(=O)[C@@H]2C[C@@H](O)CN2C(=O)[C@@H](NC(=O)C2(F)CC2)C(C)(C)C)c(OCCOc2ccc(-c3csc(N4CCOCC4)n3)cc2)c1 | > 10 | – | –
17 | Cc1ncsc1-c1ccc([C@H](C)NC(=O)[C@@H]2C[C@@H](O)CN2C(=O)[C@@H](NC(=O)CCCCOc2ccc(-c3csc(N4CC(C)OC(C)C4)n3)cc2)C(C)(C)C)cc1 (stereo partly specified) | > 10 | – | –
18 | CCC1COCCN1c1nc(-c2ccc(OCCCCC(=O)N[C@H](C(=O)N3C[C@H](O)C[C@H]3C(=O)N[C@@H](C)c3ccc(-c4scnc4C)cc3)C(C)(C)C)cc2)cs1 (stereo partly specified) | > 10 | – | –
19 | Cc1cc(OCCCCC(=O)N[C@H](C(=O)N2C[C@H](O)C[C@H]2C(=O)N[C@@H](C)c2ccc(-c3scnc3C)cc2)C(C)(C)C)ccc1-c1csc(N2CCOCC2)n1 | > 10 | – | –
20 | Cc1ncsc1-c1ccc([C@H](C)NC(=O)[C@@H]2C[C@@H](O)CN2C(=O)[C@@H](NC(=O)CCCCOc2ccc(-c3csc(N4CCOCC4C)n3)cc2)C(C)(C)C)cc1 (stereo partly specified) | > 10 | > 10 | –
21 | Cc1ncsc1-c1ccc(CNC(=O)[C@@H]2C[C@@H](O)CN2C(=O)[C@@H](NC(=O)C2(F)CC2)C(C)(C)C)c(OCCCCOc2ccc(-c3csc(N4CCOCC4)n3)cc2)c1 | > 10 | – | –
22 | c1ccc(-c2csc(N3CCOCC3)n2)cc1 | – | > 10 | –
23 | Cc1ncsc1-c1ccc([C@H](C)NC(=O)[C@@H]2C[C@@H](O)CN2C(=O)[C@@H](NC(=O)CCCCOc2ccc(-c3csc(N4CC(C)OCC4C)n3)cc2)C(C)(C)C)cc1 (stereo partly specified) | > 10 | – | –
24 | Cc1ncsc1-c1ccc([C@H](C)NC(=O)[C@@H]2C[C@@H](O)CN2C(=O)[C@@H](NC(=O)CCCCOc2ccc(-c3csc(N4CCOCC4)n3)cc2N)C(C)(C)C)cc1 | > 10 | – | –
25 | Cc1ncsc1-c1ccc(CNC(=O)[C@@H]2C[C@@H](O)CN2C(=O)[C@@H](NC(=O)C2(F)CC2)C(C)(C)C)c(OCCCOc2ccc(-c3csc(N4CCOCC4)n3)cc2)c1 | > 10 | – | –
26 | Cc1ncsc1-c1ccc([C@H](C)NC(=O)[C@@H]2C[C@@H](O)CN2C(=O)[C@@H](NC(=O)CCCCOc2ccc(-c3csc(N4CCOCC4)n3)c(F)c2)C(C)(C)C)cc1 | > 10 | – | –
27 | Cc1ncsc1-c1ccc([C@H](C)NC(=O)[C@@H]2C[C@@H](O)CN2C(=O)[C@@H](NC(=O)CCCCOc2ccc(-c3csc(N4CC5CCC(C4)O5)n3)cc2)C(C)(C)C)cc1 | > 10 | > 10 | –
28 | Cc1ncsc1-c1ccc([C@H](C)NC(=O)[C@@H]2C[C@@H](O)CN2C(=O)[C@@H](NC(=O)CCCCOc2ccc(-c3csc(N4CCOCC4)n3)cc2F)C(C)(C)C)cc1 | > 10 | – | –
